Active and inactive are the calls of the source.
Columns and labels:
[1] = Counterscreen for antagonists of the human trace amine associated receptor 1 (hTAAR1): Fluorescence-based cell-based high throughput dose response assay to identify nonselective Ga16 antagonists.; format: functional
[2] = Counterscreen for […] of the human trace amine associated receptor 1 (TAAR1): Fluorescence-based cell-based high throughput dose response assay to identify nonselective Ga16 agonists.; format: functional
[3] = target: T1, Heat shock factor protein 1 (Mus musculus, UniProt P38532); assay: inhibition of MG132-induced HSE-luciferase signal, confirmation, cell-based, NIH3T3, luminescence, dose retest (AID 2382); format: functional;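 further: NIH3T3 fibroblasts with HSF1-driven luciferase reporter stressed by proteasome inhibitor MG132; luminescence from HSF1-driven luciferase expression after 8 hours of MG132 stress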
T1 sequence (P38532 whole entry): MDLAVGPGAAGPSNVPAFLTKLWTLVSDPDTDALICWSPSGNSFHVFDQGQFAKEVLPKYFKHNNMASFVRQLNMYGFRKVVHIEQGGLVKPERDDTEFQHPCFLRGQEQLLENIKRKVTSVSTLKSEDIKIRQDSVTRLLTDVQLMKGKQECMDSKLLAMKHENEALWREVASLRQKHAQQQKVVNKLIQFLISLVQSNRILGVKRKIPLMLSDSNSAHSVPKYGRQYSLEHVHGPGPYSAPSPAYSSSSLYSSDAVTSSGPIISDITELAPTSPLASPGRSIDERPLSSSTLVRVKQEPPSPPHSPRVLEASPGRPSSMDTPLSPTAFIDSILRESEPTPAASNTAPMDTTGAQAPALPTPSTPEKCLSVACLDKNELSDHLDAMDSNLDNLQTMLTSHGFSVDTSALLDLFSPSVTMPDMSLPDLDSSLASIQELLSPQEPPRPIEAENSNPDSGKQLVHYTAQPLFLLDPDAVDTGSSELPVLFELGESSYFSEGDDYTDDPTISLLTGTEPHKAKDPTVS

[4] = target: T2, Corticotropin-releasing factor receptor 2/Corticotropin-releasing factor-binding protein (Homo sapiens, UniProt P24387+Q13324); assay: Dose Response confirmation of uHTS hits for small molecule antagonists of the CRF-binding protein and CRF-R2 receptor complex.; format: functional; details: read-out: IC50_Mean
T2 sequence (Q13324 whole entry): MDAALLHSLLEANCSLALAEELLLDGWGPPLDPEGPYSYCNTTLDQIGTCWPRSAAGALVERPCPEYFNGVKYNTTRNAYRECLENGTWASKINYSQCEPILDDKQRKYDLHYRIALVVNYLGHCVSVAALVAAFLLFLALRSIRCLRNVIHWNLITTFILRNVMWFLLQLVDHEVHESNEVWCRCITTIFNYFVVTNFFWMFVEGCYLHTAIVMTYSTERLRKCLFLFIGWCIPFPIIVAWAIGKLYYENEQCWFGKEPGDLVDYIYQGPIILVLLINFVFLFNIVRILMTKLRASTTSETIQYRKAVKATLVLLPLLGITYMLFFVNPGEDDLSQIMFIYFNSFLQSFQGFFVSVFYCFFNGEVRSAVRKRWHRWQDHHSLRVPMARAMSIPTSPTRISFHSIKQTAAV
T2 sequence (P24387 whole entry): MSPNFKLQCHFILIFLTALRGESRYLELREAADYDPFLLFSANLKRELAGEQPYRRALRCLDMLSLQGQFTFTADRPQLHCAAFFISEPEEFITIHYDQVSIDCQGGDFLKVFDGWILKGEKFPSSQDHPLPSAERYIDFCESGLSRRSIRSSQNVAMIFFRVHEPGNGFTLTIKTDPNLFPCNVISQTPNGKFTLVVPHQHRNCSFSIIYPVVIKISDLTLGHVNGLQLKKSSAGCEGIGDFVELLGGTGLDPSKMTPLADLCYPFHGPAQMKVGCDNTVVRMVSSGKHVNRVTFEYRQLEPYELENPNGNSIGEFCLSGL

[5] = CRF-BP/CRF-R2 complex antagonists, dose response, cell-based, uHTS hits, 384-well (AID 651639); format: functional, Homo sapiens; details: read-out: IC50_Mean
[6] = target: T2, Corticotropin-releasing factor receptor 2/Corticotropin-releasing factor-binding protein; assay: activators of CRF receptor 2 with binding protein – uHTS hits, confirmation (AID 602473); format: functional; details: read-out: EC50_Mean
Beta-lactamase [7] = target: Beta-lactamase (Salmonella choleraesuis (strain SC-B67), UniProt Q5J463)
Beta-lactamase [8] = target: Beta-lactamase (Pseudomonas aeruginosa, UniProt Q79MP6);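 further: biochemical dose-response test of metallo-beta-lactamase enzyme inhibition, read out by epi-absorbance; purified recombinant IMP-1 metallo-beta-lactamase with nitrocefin as substrate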
Protein S100-A4 = Protein S100-A4 (Homo sapiens, UniProt P26447); assay: S100A4-myosin IIA binding inhibitor potency, dose response, biochemical, fluorescence polarization, cherry-picked hits (AID 687001); format: functional
[9] = target: T3, Calpain-2 catalytic subunit (Sus scrofa, UniProt P43367); assay: pig calpain II inhibitor potency, dose response, biochemical, fluorogenic peptide substrate (AID 1420); format: functional
T3 sequence (P43367 whole entry): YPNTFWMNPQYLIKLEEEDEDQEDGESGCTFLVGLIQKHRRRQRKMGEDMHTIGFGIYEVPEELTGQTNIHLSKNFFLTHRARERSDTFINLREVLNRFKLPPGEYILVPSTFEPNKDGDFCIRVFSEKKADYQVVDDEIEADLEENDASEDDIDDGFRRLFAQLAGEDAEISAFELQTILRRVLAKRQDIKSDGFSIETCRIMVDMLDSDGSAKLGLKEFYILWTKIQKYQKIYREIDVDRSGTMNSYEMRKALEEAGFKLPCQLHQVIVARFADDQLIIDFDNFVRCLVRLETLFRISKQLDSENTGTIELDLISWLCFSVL

ORF 73 = target: T4, ORF 73 (Human herpesvirus 8, UniProt O40947); assay: inhibitors of C-LANA binding to LBS DNA, dose response, biochemical, fluorescence polarization, cherry-picked samples (AID 504725); parameters: species or system Human gammaherpesvirus 8;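 further: fluorescence polarization of a labeled DNA duplex reporting LANA DNA binding; potency is for inhibitors that block LANA binding to the DNA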
T4 sequence (O40947 whole entry): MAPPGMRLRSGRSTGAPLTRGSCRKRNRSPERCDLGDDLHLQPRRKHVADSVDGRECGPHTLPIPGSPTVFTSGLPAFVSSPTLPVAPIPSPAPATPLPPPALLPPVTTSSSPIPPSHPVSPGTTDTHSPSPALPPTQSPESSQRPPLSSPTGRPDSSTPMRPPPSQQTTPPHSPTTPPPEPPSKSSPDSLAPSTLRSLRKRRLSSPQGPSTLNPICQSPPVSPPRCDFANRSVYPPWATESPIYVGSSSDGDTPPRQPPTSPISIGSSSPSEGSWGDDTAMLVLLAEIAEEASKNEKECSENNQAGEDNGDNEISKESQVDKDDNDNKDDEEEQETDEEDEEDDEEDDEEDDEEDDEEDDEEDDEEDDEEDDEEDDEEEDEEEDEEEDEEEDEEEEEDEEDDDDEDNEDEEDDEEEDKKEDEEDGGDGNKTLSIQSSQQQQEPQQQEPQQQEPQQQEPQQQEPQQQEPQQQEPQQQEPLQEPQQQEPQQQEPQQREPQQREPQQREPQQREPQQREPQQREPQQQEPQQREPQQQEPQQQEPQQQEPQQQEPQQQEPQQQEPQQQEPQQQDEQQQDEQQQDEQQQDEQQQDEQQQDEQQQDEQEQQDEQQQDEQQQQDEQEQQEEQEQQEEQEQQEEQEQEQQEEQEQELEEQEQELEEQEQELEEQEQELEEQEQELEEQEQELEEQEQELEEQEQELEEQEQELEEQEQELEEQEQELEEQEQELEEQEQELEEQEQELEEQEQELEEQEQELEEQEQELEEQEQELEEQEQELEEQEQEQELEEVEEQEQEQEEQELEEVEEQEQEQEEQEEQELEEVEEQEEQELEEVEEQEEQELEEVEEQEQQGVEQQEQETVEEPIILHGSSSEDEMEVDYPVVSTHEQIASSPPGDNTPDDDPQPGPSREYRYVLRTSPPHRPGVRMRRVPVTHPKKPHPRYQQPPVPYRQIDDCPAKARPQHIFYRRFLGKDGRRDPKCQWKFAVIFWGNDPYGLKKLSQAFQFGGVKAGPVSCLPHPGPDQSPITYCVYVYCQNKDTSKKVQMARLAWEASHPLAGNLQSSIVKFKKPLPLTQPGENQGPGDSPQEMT

Sequence of Protein S100-A4 (P26447 whole entry): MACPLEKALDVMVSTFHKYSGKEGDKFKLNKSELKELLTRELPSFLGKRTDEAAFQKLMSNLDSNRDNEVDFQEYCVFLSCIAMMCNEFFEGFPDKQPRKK
Sequence of Beta-lactamase (Pseudomonas aeruginosa, UniProt Q79MP6) (Q79MP6 whole entry): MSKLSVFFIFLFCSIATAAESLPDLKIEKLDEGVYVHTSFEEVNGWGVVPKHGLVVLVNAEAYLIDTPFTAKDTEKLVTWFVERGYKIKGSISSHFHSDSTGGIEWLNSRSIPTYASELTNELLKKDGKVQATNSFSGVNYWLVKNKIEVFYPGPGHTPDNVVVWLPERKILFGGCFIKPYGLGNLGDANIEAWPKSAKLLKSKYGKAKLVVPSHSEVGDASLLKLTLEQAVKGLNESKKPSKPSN
Sequence of Beta-lactamase (Salmonella choleraesuis (strain SC-B67), UniProt Q5J463) (Q5J463 whole entry): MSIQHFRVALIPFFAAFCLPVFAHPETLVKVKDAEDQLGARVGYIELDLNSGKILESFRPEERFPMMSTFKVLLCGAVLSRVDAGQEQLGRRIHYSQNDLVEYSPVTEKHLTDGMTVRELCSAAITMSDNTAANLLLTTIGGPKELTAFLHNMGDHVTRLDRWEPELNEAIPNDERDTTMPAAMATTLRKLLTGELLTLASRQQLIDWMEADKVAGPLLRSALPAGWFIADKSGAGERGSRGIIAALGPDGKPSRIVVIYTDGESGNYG

Cc1coc(NC(=O)CSc2nc(-c3ccc(Cl)cc3)cc(C(F)(F)F)c2C#N)n1
IC50 [1]: > 29.9 µM (inactive) | EC50 [2]: > 29.9 µM (inactive) | EC50 [3]: > 195 µM (not active)

CCOC(=O)Oc1ccc2c(=O)c(Oc3cccc(C)c3)coc2c1
IC50 [4]: 0.61 µM (active) | IC50 [5]: > 20 µM (inactive) | EC50 [6]: > 53 µM (inactive)

CC1CC(C)CN(C(=O)CSc2nc(Cc3cccs3)nc3ccccc23)C1 (centres undefined)
IC50 [4]: 6.34 µM (active) | IC50 [5]: 5.99 µM (active) | EC50 [6]: > 53 µM (inactive)

CCOC(=O)C1CCCN(c2ccc([N+](=O)[O-])c3nonc23)C1 (centres undefined)
IC50 (Beta-lactamase [7]): 10.5 µM (inactive) | IC50 (Beta-lactamase [8]): 37.1 µM (inactive) | AC50 (Protein S100-A4): 0.505 µM (active) | IC50 [9]: 19 µM (not active) | AC50 (ORF 73): 4.35 µM (active)
